Measured values published in BindingDB's records for doi:10.7270/Q2FQ9V6B (Burnham Center For Chemical Genomics, 2012).

Target: T1, Tyrosine-protein phosphatase non-receptor type 22 (Homo sapiens, UniProt Q9Y2R2)
T1 sequence (Q9Y2R2 whole entry): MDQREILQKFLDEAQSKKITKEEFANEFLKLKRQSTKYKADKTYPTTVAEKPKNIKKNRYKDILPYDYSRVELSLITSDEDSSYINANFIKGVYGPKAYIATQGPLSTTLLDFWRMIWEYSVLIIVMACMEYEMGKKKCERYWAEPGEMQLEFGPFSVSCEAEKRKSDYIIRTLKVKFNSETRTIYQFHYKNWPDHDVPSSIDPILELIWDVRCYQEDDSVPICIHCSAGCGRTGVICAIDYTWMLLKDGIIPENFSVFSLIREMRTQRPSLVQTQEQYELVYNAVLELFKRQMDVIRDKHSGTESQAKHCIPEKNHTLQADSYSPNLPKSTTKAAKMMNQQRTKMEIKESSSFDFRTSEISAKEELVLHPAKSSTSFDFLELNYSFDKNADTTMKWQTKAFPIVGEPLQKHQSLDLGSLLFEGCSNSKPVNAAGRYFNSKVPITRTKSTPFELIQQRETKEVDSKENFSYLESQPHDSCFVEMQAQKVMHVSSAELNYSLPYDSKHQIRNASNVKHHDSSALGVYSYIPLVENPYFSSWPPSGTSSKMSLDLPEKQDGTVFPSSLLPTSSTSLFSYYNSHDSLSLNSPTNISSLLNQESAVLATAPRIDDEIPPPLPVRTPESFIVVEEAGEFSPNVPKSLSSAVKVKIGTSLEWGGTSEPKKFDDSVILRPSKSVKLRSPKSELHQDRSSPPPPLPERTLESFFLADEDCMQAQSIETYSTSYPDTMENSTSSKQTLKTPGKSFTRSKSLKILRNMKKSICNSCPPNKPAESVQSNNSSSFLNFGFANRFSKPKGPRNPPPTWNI
Assay: PTPN22 phosphatase inhibition, dose response, selectivity assay for STEP inhibitor project, biochemical (AID 624241)

IC50 | Compound
> 100 µM | CC(C)(C)C(=O)Nc1ccc(C(=O)Nc2cccc(Oc3ccc(C(=O)O)c(C(=O)O)c3)c2)cc1 [MLS001181252]
> 100 µM | COC(=O)c1ccccc1CSc1nsc(/C=C/N(C)C)c1C#N [SMR000549393]
> 100 µM | O=C(NN=Cc1ccccc1O)NN=Cc1ccccc1O [SMR001556943]
2.82 µM | CSc1ccc(CN=Nc2ccc(S(=O)(=O)Nc3ccccc3C(=O)O)cc2[N+](=O)[O-])cc1 [MLS002245633]
> 100 µM | N=C1S/C(=C\c2ccc(O)cc2)C(=O)N1c1ccc(F)cc1 [SMR000298434]
> 100 µM | O=C(Nc1cccc2c(=O)[nH][nH]c(=O)c12)c1ccc([N+](=O)[O-])cc1 [MLS003171605]
> 100 µM | CCc1ccc(OCC(=O)Nc2ccc(-c3nc4ccccc4o3)c(O)c2)cc1 [MLS000109444]
> 100 µM | O=C(N/N=C/c1ccc(OC(=O)c2cccs2)cc1)c1cccc(F)c1 [MLS000576933]
> 100 µM | COC(=O)Nc1sc2c(c1C(N)=O)CCC(C)C2 (stereo not given) [MLS000683996]
> 100 µM | CCOC(=O)N1CCC(N(CCN(C)C)C(=S)Nc2ccc(Oc3ccccc3)cc2)CC1 [SMR000311544]
> 100 µM | Cc1ccc(NC(=O)c2ccc3nc(N4CCOCC4)sc3c2)c(Cl)c1 [SMR000624920]
> 100 µM | Cc1sc2nc(CSC(C)C(=O)Nc3ccc(Cl)cn3)nc(O)c2c1C (stereo not given) [SMR001268769]
> 100 µM | COc1ccc(OC)c(-n2c(O)c3o[nH]c(-c4ccccc4Cl)c-3c2=O)c1 [SMR000046218]
> 100 µM | CCN1CCN(C(=S)c2ccc(Cl)c(Cl)c2)CC1 [SMR000143195]
> 100 µM | S=C1N=C2C(=C3SCCS3)CCCC2C(c2ccccc2)N1 (stereo not given) [MLS000516376]
> 100 µM | CCOc1ccc(/C=N/NC(=O)c2cc3c(OC)cccc3[nH]2)cc1 [MLS001216500]
> 100 µM | O=C(N/N=C/C1C=CC=CC1=O)c1cccc([N+](=O)[O-])c1 (stereo not given) [MLS002667988]
> 100 µM | OCCN1CCN(C(=S)c2ccc(Br)cc2)CC1 [MLS000577024]
> 100 µM | O=C(N/N=C/c1ccc(Cl)c([N+](=O)[O-])c1)c1ccc2c(c1)OCCO2 [MLS000587937]

Second part, the compound before the results:

Compound | IC50
Cc1ccc(N=C(S)N(CCN(C)C)Cc2cccs2)c(C)c1 | > 100 µM
CCOc1ccc(C(=S)N2CCN(C)CC2)cc1 [(4-ethoxyphenyl)-(4-methyl-1-piperazinyl)methanethione] | > 100 µM
O=C(CCc1ccccc1)NNC(=O)c1ccc(NC(=O)c2ccccc2)cc1 | > 100 µM
Cc1c(CCC(=O)O)c(=O)oc2c(C)c(OCc3ccccc3Cl)ccc12 [3-[7-[(2-chlorophenyl)methoxy]-4,8-dimethyl-2-oxochromen-3-yl]propanoic acid] | > 100 µM
O=C(COc1ccc(/C=N/NC(=O)c2ccccc2O)cc1)Nc1ccccc1 [N-[(E)-[4-(2-anilino-2-oxoethoxy)phenyl]methylideneamino]-2-hydroxybenzamide] | > 100 µM
O=C(N/N=C/c1cccc([N+](=O)[O-])c1)c1ccc(Br)cc1 [4-bromo-N-[(E)-(3-nitrophenyl)methylideneamino]benzamide] | > 100 µM
OCCN1CCN(C(=S)c2ccc(Cl)c(Cl)c2)CC1 [(3,4-dichlorophenyl)-[4-(2-hydroxyethyl)-1-piperazinyl]methanethione] | > 100 µM
S=C(c1cn(CCOc2ccccc2)c2ccccc12)N1CCCC1 [MLS-0109562.0001] | > 100 µM
COc1ccc(CN=Nc2nc(O)c(CC(=O)O)s2)cc1OCc1ccc(Cl)cc1Cl [[2-({3-[(2,4-dichlorobenzyl)oxy]-4-methoxybenzylidene}hydrazono)-4-oxo-1,3-thiazolidin-5-yl]acetic acid] | 33.8 µM
O=C(N/N=C/c1ccncc1)c1cccc(S(=O)(=O)Nc2ccc(Cl)cc2)c1 | > 100 µM
Cc1ccc(-c2nc(NC(=O)CSc3cc(C)c4ccccc4n3)ns2)cc1 [2-[(4-methyl-2-quinolyl)thio]-N-[5-(p-tolyl)-1,2,4-thiadiazol-3-yl]acetamide] | > 100 µM
O=C1Nc2ccc3sc4ccccc4c3c2C1=O [3H-6-Thia-3-aza-cyclopenta[c]fluorene-1,2-dione] | > 100 µM
Cc1c(CC(=O)O)c(=O)oc2c(C)c(OCc3ccccc3Br)ccc12 [2-[7-[(2-bromophenyl)methoxy]-4,8-dimethyl-2-oxochromen-3-yl]acetic acid] | > 100 µM
O=S(=O)(Nc1ccc(Cl)cc1)c1ccc(N2CCOCC2)c(NC(=S)NCCN2CCOCC2)c1 | > 100 µM
O=C(N/N=C/c1ccc(Br)cc1)c1ccc(Br)o1 [5-bromanyl-N-[(E)-(4-bromophenyl)methylideneamino]furan-2-carboxamide] | > 100 µM
S=C(NCCc1ccccc1)Nc1c(Cl)cccc1Cl [1-(2,6-dichlorophenyl)-3-(2-phenylethyl)thiourea] | > 100 µM
O=[N+]([O-])c1ccc(O)c(Nc2ncnc3ccccc23)c1 [4-nitro-2-(4-quinazolinylamino)phenol] | > 100 µM
CCOc1cc(CN=Nc2nc(O)c(CC(=O)O)s2)ccc1OCc1ccc(Cl)cc1Cl [2-[2-[(N''E)-N''-[4-(2,4-dichlorobenzyl)oxy-3-ethoxy-benzylidene]hydrazino]-4-keto-2-thiazolin-5-yl]acetic acid] | 7.26 µM
COc1cccc(-c2cc(C(=O)Nc3nc4ccccc4s3)c3ccccc3n2)c1 [N-(1,3-benzothiazol-2-yl)-2-(3-methoxyphenyl)-4-quinolinecarboxamide] | > 100 µM
COc1ccc(NC(=S)NCCCN2CCCC2)cc1Cl [1-(3-chloro-4-methoxyphenyl)-3-[3-(1-pyrrolidinyl)propyl]thiourea] | > 100 µM
Cc1ccc(C(=S)N2CCN(Cc3ccccc3)CC2)s1 [(5-methyl-2-thiophenyl)-[4-(phenylmethyl)-1-piperazinyl]methanethione] | > 100 µM
O=C(N/N=C/c1cccc(Br)c1)c1ccc(N2CCCC2=O)cc1 [N-[(E)-(3-bromophenyl)methylideneamino]-4-(2-oxidanylidenepyrrolidin-1-yl)benzamide] | > 100 µM
CCCN(CC(=O)Nc1ccccc1OC)C(=O)Cc1ccc2c(c1)CCC2 [2-(2,3-dihydro-1H-inden-5-yl)-N-[2-[(2-methoxyphenyl)amino]-2-oxidanylidene-ethyl]-N-propyl-ethanamide] | > 100 µM
NC(=O)C1(N2CCCCC2)CCN(C(=S)Nc2ccc(S(N)(=O)=O)cc2)CC1 [1'-({[4-(aminosulfonyl)phenyl]amino}carbonothioyl)-1,4'-bipiperidine-4'-carboxamide] | > 100 µM
COc1cccc(Nc2nn3c(=O)c4ccccc4nc3s2)c1 | > 100 µM
COc1cc(Cl)ccc1N=C(S)N(CCCN1CCOCC1)Cc1cn(C)c2ccccc12 [N'-(4-chloro-2-methoxyphenyl)-N-[(1-methyl-1H-indol-3-yl)methyl]-N-(3-morpholin-4-ylpropyl)thiourea] | > 100 µM
